Experimental data reported in patent publication US20240350432A1, “CENTRAL NERVOUS SYSTEM MODULATORS AS COVID-19 THERAPEUTICS” (priority 2023, published 2024).
Entries after “also recorded” stand apart in the source; their conditions may differ.

Tests used:
Type in all cases: in vivo, mice
pons and medulla = test: Cresyl violet staining, semi-qualitative morphology ranking; details: COVID-19 positive; for cresyl violet morphological rank vs (−) control: rank 1-3
IBA1 = IBA1 immunofluorescence (microglia), mean FL intensity; details: for mean IBA1 FL intensity with progression of COVID-19 infection (time post-inoculation): COVID-19 positive groups, 3, 6, 10 days
GFAP = GFAP immunofluorescence (reactive astrocytes), mean FL intensity; details: for mean GFAP FL intensity with progression of COVID-19 infection (time post-inoculation): COVID-19 positive groups, 3, 6, 10 days
[1] = system: myelin of the pons and medulla; test: Black-Gold II Myelin staining, semi-qualitative myelination ranking
[2] = COVID-19 positive, 6 days post-inoculation
[3] = COVID-19 positive, 3 days post-inoculation

SMILES | cresyl violet morphological rank vs (−) control (pons and medulla; 3 days post-inoculation) | cresyl violet morphological rank vs saline treatment (pons and medulla; 6 days post-inoculation) | cresyl violet morphological rank vs (−) control (pons and medulla; 6 days post-inoculation) | cresyl violet morphological rank vs saline treatment (pons and medulla; 10 days post-inoculation) | mean IBA1 FL intensity with progression of COVID-19 infection (time post-inoculation) (IBA1) | mean GFAP FL intensity with progression of COVID-19 infection (time post-inoculation) (GFAP) | preventative effect in COVID-19 induced neuroinflammation (GFAP and IBA1 FL intensity trends) (GFAP; respiratory centers of the brain) | Black-Gold II myelination ranking [1, 2] | Black-Gold II myelination ranking across time points post-inoculation ([1]; regardless of COVID-19 status) | cresyl violet morphological rank vs (−) control (pons and medulla; 10 days post-inoculation) | IBA1 FL intensity nonlinear fit over time, Best Fit (IBA1; COVID-19 positive groups) | FL intensity vs saline and ifenprodil treated groups (FIG. 6B) (IBA1; [3]) | mean IBA1 FL intensity, COVID-19 positive vs negative group of same treatment (IBA1; sacrificed 10 days post-virus inoculation) | GFAP FL intensity nonlinear fit over time, Best Fit (GFAP; COVID-19 positive groups) | Black-Gold II myelination ranking [1, 3] | Black-Gold II myelination ranking vs (−) control ([1]; COVID-19 positive, 10 days post-inoculation) | COVID-19 related changes in myelination, overall finding ([1]; respiratory centers of the brain, listed as Memantine)
CC(C(O)c1ccc(O)cc1)N1CCC(Cc2ccccc2)CC1 (stereo not shown) [ifenprodil] | no difference in morphological rank | increases morphological rank | increase in rankings | improve the morphological rank | significantly changed | significantly changed | did not have a preventative effect | increased myelination ranking | no differences; also recorded: no significant difference | – | – | – | – | – | – | – | –
CC12CC3CC(C)(C1)CC(N)(C3)C2 [memantine] | – | – | significantly lower than the negative control | improve the morphological rank | increasing time point was not associated with decreasing mean IBA1 FL intensity; also recorded: no change | no change; also recorded: increasing time point was not associated with increasing mean GFAP FL intensity | – | decreased myelination rankings | – | morphology rankings similar to the negative control groups; also recorded: no longer a difference in morphological rank | Horizonal Line | decreased expression of GFAP; also recorded: slightly lower | significantly decreased; also recorded: slightly lower | Horizontal Line | decreased myelination rankings | not significantly different | signs of demyelination
